Assays:
[1] = system: BONANZA BARLEY; assay: Test E; assay type: in vivo, Hordeum vulgare cv. Bonanza
[2] = system: ANN. BLUEGRASS; assay: Test E; assay type: in vivo, PO annua
[3] = system: BLACKGRASS; assay: Test E; assay type: in vivo, Alopercurus mysuroides
Excerpt: Seeds of the following crops and weeds are sown into 15 cm pots containing Sassafras sandy loam soil: wheat (Triticum aestivum cv. Park), barley (Hordeum vulgare cv. Bonanza), sugarbeet (Beta vulgaris cv. USH-11), rapeseed (Brassica napus cv. Jet Neuf), black nightshade (Solanum nigrum), chickweed (Stellaria media), lambsquarter (Chenopodium album), Galium aparine, knotweed (Polygonum aviculare), Kochia scoparia, Matricaria indora, redroot pigweed (Amaranthus retroflexus), smartweed (Polygonum persicaria), speedwell (Veronica persica), wild buckwheat (Polygonum convolvulus), wild mustard (Brassica spp.), wild radish (Raphanus raphanistrum), annual bluegrass (PO annua), annual ryegrass (Lolium multiflorum), blackgrass (Alopercurus mysuroides), green foxtail (Setaria viridis), and wild oats (Avena fatua). Compounds are formulated in a nonphytotoxic solvent and applied to the plants as a foliar spray or applied to the soil surface. Plants are treated at two stages: preemergence, or postemergence when the sugarbeets are at the 2-3 true leaf stage. Plants are grown in a temperature-controlled greenhouse for the duration of the test.
Weed control and crop injury are evaluated visually at 3-4 weeks after compound application, using a scale of 0 to 100%, where 0=no injury and 100=complete death of the plant. All plants are rated with respect to untreated plants (checks) grown in the greenhouse under identical conditions to the treated plants.

[4] = system: GREEN FOXTAIL; assay: Test E; assay type: in vivo, Setaria viridis
[5] = system: G4646 CORN; assay: Test D Corn and Sorghum Herbicide Test; assay type: in vivo, Zea mays
[6] = system: GIANT FOXTAIL; assay: Test D; assay type: in vivo, Setaria faberii
[7] = system: LARGE CRABGRASS; assay: Test D; assay type: in vivo, Digitaria sanguinalis
[8] = system: BARNYARDGRASS; assay: Test D; assay type: in vivo, Echinochloa crus-galli
Description: (§1) The Corn and Sorghum Herbicide Test included the following species in both the preemergence and postemergence evaluations:
(§2) Postemergence plantings were grown in Sassafras sandy loam soil. Corn and soybeans were grown in separate 25 cm diameter containers. Sorghum and the seven grass weed species were grown in two 18 cm diameter containers, 4 species per container. The seven broadleaf weed species were also grown in two 18 cm diameter containers, 4 species in one container, 3 species in the second container. One additional planting of corn in an 18 cm diameter container was made. The soil surface of this additional container of corn was covered with the absorbent, perlite, before spray treatment so that test chemicals would enter the plant only via the foliage. The plants were grown 10-21 days, dependent upon the species and then sprayed postemergence with the test chemicals dissolved in a nonpytotoxic solvent.
(§3) Preemergence plantings were grown in fertilized Tama silt loam soil. These plantings are identical to those described in the postemergence section, with the exception of the corn planting having perlite covering the soil surface. These plantings were made the day of or the day before spraying the test chemicals dissolved in a nonphytotoxic solvent.
(§4) Treated plants and controls were maintained in the greenhouse for 2 to 4 weeks. Visual planting response ratings were made on a percentage scale of 0 to 100 in comparison with a control where 0=no injury, and 100=death.

[9] = system: JOHNSONGRASS; assay: Test D; assay type: in vivo, Sorghum halepense
[10] = system: G522 SORGHUM; assay: Test D; assay type: in vivo, Sorghum bicolor
[11] = system: VELVETLEAF; assay: Test D; assay type: in vivo, Abutilon theophrasti
Description: as §1, §2, §3, §4

[12] = system: REDROOT PIGWEED; assay: Test D; assay type: in vivo, Amaranthus retroflexus
[13] = system: IVY MORNINGLORY; assay: Test D; assay type: in vivo, Ipomoea hederacea
[14] = system: JIMSONWEED; assay: Test D; assay type: in vivo, Datura stramonium
[15] = system: PERLITE CORN; assay: Test D, soil covered with perlite; assay type: in vivo, Zea mays
Description: as §1, §2, §4

Measured: plant response

C=C(c1ccc(F)cc1)C(O)(Cn1cncn1)c1ccc(F)cc1F (stereo not shown) [Example 4, 2-(2,4-Difluorophenyl)-3-(4-fluorophenyl)-1-(1H-1,2,4-triazol-1-yl)-3-buten-2-ol]
100%: [1]; PREEMERGENCE 0500 GM/HA | [2]; PREEMERGENCE 0500 GM/HA | [4]; PREEMERGENCE 0500 GM/HA
90%: [3]; PREEMERGENCE 0500 GM/HA
30%: [1]; POSTEMERGENCE 0125 GM/HA
50%: [3]; POSTEMERGENCE 0500 GM/HA
20%: [1]; POSTEMERGENCE 0064 GM/HA | [2]; POSTEMERGENCE 0125 GM/HA | [3]; POSTEMERGENCE 0125 GM/HA | [3]; POSTEMERGENCE 0250 GM/HA | [4]; POSTEMERGENCE 0125 GM/HA | [4]; POSTEMERGENCE 0250 GM/HA
80%: [4]; POSTEMERGENCE 0500 GM/HA
60%: [1]; POSTEMERGENCE 0500 GM/HA | [2]; POSTEMERGENCE 0500 GM/HA
40%: [1]; POSTEMERGENCE 0250 GM/HA | [2]; POSTEMERGENCE 0250 GM/HA
0%: [2]; POSTEMERGENCE 0064 GM/HA | [3]; POSTEMERGENCE 0064 GM/HA | [4]; POSTEMERGENCE 0064 GM/HA

C=C(c1ccccc1Cl)C(O)(Cn1cncn1)c1ccc(Cl)cc1Cl (stereo not shown) [Example 33, 2-(2,4-Dichlorophenyl)-3-(2-chlorophenyl)-1-(1H-1,2,4-triazol-1-yl)-3-buten-2-ol]
0%: [5]; POSTEMERGENCE 0250 GM/HA | [5]; POSTEMERGENCE 0500 GM/HA | [5]; POSTEMERGENCE 1000 GM/HA | [5]; PREEMERGENCE 0250 GM/HA | [5]; PREEMERGENCE 0500 GM/HA | [5]; PREEMERGENCE 1000 GM/HA | [6]; POSTEMERGENCE 0250 GM/HA | [6]; POSTEMERGENCE 0500 GM/HA | [6]; POSTEMERGENCE 1000 GM/HA | [6]; PREEMERGENCE 0250 GM/HA | [6]; PREEMERGENCE 0500 GM/HA | [6]; PREEMERGENCE 1000 GM/HA | [7]; POSTEMERGENCE 0250 GM/HA | [7]; POSTEMERGENCE 0500 GM/HA | [7]; POSTEMERGENCE 1000 GM/HA | [7]; PREEMERGENCE 0250 GM/HA | [7]; PREEMERGENCE 0500 GM/HA | [7]; PREEMERGENCE 1000 GM/HA | [8]; POSTEMERGENCE 0250 GM/HA | [8]; POSTEMERGENCE 0500 GM/HA | [8]; POSTEMERGENCE 1000 GM/HA | [8]; PREEMERGENCE 0250 GM/HA | [8]; PREEMERGENCE 0500 GM/HA | [8]; PREEMERGENCE 1000 GM/HA | [9]; POSTEMERGENCE 0250 GM/HA | [9]; POSTEMERGENCE 0500 GM/HA | [9]; POSTEMERGENCE 1000 GM/HA | [9]; PREEMERGENCE 0250 GM/HA | [9]; PREEMERGENCE 0500 GM/HA | [9]; PREEMERGENCE 1000 GM/HA | [10]; POSTEMERGENCE 0250 GM/HA | [10]; POSTEMERGENCE 0500 GM/HA | [10]; POSTEMERGENCE 1000 GM/HA | [10]; PREEMERGENCE 0250 GM/HA | [10]; PREEMERGENCE 0500 GM/HA | [10]; PREEMERGENCE 1000 GM/HA | [11]; POSTEMERGENCE 0250 GM/HA | [11]; POSTEMERGENCE 0500 GM/HA | [11]; POSTEMERGENCE 1000 GM/HA | [11]; PREEMERGENCE 0250 GM/HA | [11]; PREEMERGENCE 0500 GM/HA | [11]; PREEMERGENCE 1000 GM/HA | [12]; POSTEMERGENCE 0250 GM/HA | [12]; POSTEMERGENCE 0500 GM/HA | [12]; POSTEMERGENCE 1000 GM/HA | [12]; PREEMERGENCE 0250 GM/HA | [12]; PREEMERGENCE 0500 GM/HA | [12]; PREEMERGENCE 1000 GM/HA | [13]; POSTEMERGENCE 0250 GM/HA | [13]; POSTEMERGENCE 0500 GM/HA | [13]; POSTEMERGENCE 1000 GM/HA | [13]; PREEMERGENCE 0250 GM/HA | [13]; PREEMERGENCE 0500 GM/HA | [13]; PREEMERGENCE 1000 GM/HA | [14]; POSTEMERGENCE 0250 GM/HA | [14]; POSTEMERGENCE 0500 GM/HA | [14]; POSTEMERGENCE 1000 GM/HA | [14]; PREEMERGENCE 0250 GM/HA | [14]; PREEMERGENCE 0500 GM/HA | [14]; PREEMERGENCE 1000 GM/HA | [15]; POSTEMERGENCE 0250 GM/HA | [15]; POSTEMERGENCE 0500 GM/HA | [15]; POSTEMERGENCE 1000 GM/HA

C=C(c1ccccc1)C(O)(Cn1cncn1)c1ccc(Cl)cc1 (stereo not shown) [Example 51, 2-(4-Chlorophenyl)-3-phenyl-1-(1H-1,2,4-triazol-1-yl)-3-buten-2-ol]
0%: [1]; POSTEMERGENCE 0064 GM/HA | [1]; POSTEMERGENCE 0125 GM/HA | [1]; POSTEMERGENCE 0250 GM/HA | [1]; POSTEMERGENCE 0500 GM/HA | [2]; POSTEMERGENCE 0064 GM/HA | [2]; POSTEMERGENCE 0125 GM/HA | [3]; POSTEMERGENCE 0064 GM/HA | [3]; POSTEMERGENCE 0125 GM/HA | [3]; POSTEMERGENCE 0250 GM/HA | [3]; POSTEMERGENCE 0500 GM/HA | [3]; PREEMERGENCE 0500 GM/HA | [4]; POSTEMERGENCE 0064 GM/HA | [4]; POSTEMERGENCE 0125 GM/HA | [4]; POSTEMERGENCE 0250 GM/HA | [4]; POSTEMERGENCE 0500 GM/HA
30%: [1]; PREEMERGENCE 0500 GM/HA
20%: [2]; POSTEMERGENCE 0250 GM/HA | [2]; PREEMERGENCE 0500 GM/HA
50%: [2]; POSTEMERGENCE 0500 GM/HA
100%: [4]; PREEMERGENCE 0500 GM/HA

Source: patent publication US4965280A, “Antifungal carbinols” (E. I. Du Pont de Nemours and Company, priority 1989, dated 1990)
